{"source": "paper PMC9501129", "about": "(Pharmaceutics, 2022)", "key": {"[1]": {"experiment": "Amniotic fluid drug concentration in mouse pregnancy model (HPLC-MSMS)", "format": "in vivo, C57BL/6J mice", "conditions": "female, C57BL/6J, mouse, amniotic fluid / maternal plasma, oral, pregnant mice", "description": "All animal experiments were approved by the University Health Network Animal Use Committee (protocol #2575) and performed according to the policies and guidelines of the Canadian Council on Animal Care. C57BL/6J mice bred in-house (original breeders from Jackson Laboratory RRID:IMSR JAX:000664) were maintained under a 12-h light/dark cycle, with ad libitum access to food and water. Animals were acclimated to their surroundings for 1 week prior to experiment initiation. Males were isolated for 7 days prior to mating. Female mice (7–12 weeks of age) were mated with males at a ratio of 2:1. Presence of vaginal plug was denoted as gestational day 0.5 (GD0.5). Pregnancy was confirmed by weight gain of >1.5 g on GD9.5 and >3 g on GD13.5. […] The equivalent mouse mg/kg dose was calculated based on the human dose divided by an assumed average human weight of 60 kg. […] On GD15.5, mice underwent saphenous bleed 24 h after the GD14.5 dose administration (trough). Immediately after the saphenous bleed, mice were dosed with the appropriate drug regimen and sacrificed 1 h post-treatment (peak), at which time blood was collected by cardiac puncture and amniotic fluid was collected by dissecting the uterus, puncturing the amniotic sac, and draining the amniotic fluid into a sterile dish. Amniotic fluid was pooled for the entire litter. Samples from 2 dams per arm were analyzed for drug levels.\nBriefly, 50 μL of plasma or amniotic fluid was spiked with internal standard (ritonavir-d6) followed by protein precipitation with acetonitrile and filtration. Filtrates were diluted 1:9 with ammonium acetate buffer (10 mM) and analyzed by the HPLC-MSMS system, consisting of a Shimadzu Nexera XR high-performance liquid chromatograph (Shimadzu, Columbia, MD, USA) coupled with a SCIEX API 4500 QqQ mass spectrometer (SCIEX, Concord, ON, Canada). Chromatographic separation by Mobile Phase A (10% methanol, 5% 50 mM ammonium acetate, 85% 0.25% acetic acid pH 3.6 ± 0.2) and Mobile Phase B (90% methanol, 5% 50 mM ammonium acetate, 5% 0.25% acetic acid pH 6.6 ± 0.2) was performed under linear gradient conditions (flow rate 0.7 mL/min) on a reverse-phase Zorbax XDB-C18 column (Agilent Technologies, Santa Clara, CA, USA) maintained at 40 °C. […] HPLC-MSMS data were acquired using Analyst (v 1.6.3, SCIEX, Concord, ON, Canada) and analyzed with MultiQuant software (v 3.0.3, SCIEX, Concord, ON, Canada). […] Positive controls spiked in-house and prepared by an external laboratory during a sample exchange program were included in all runs."}, "[2]": {"tested_on": "pregnant rats", "conditions": "BIC orally 5, 30, or 300 mg/kg/day, gestational day 7 through 17; cited from earlier work"}, "[3]": {"conditions": "ex-vivo dually perfused human cotyledon; cited from earlier work"}, "[4]": {"tested_on": "pregnant rats", "conditions": "BIC orally up to 300 mg/kg/day, gestational day 6 to lactation/postpartum day 24; cited from earlier work"}, "[5]": {"tested_on": "pregnant rabbits", "conditions": "cited from earlier work"}, "[6]": {"tested_on": "HIV", "conditions": "compared to RAL and EVG; cited from earlier work"}, "[7]": {"conditions": "cited from earlier work"}}, "note": "Read-outs that look alike come from different tables or passages of the source.", "data": [{"smiles": "O=C(NCc1c(F)cc(F)cc1F)c1cn2c(c(O)c1=O)C(=O)N1[C@H]3CC[C@H](C3)O[C@@H]1C2", "note": "[BIC, bictegravir]", "values": [{"measurement": "Kp at 1 h", "setting": "[1]; 1× to 10× BIC, 1 h after dosing, read-out: Ratio of drug in the amniotic fluid to that in maternal plasma", "result": "0.021 to 0.036"}, {"measurement": "Kp at 1 h", "setting": "[1]; 20× BIC dose, 1 h after dosing, read-out: Ratio of drug in the amniotic fluid to that in maternal plasma", "result": 0.112}, {"measurement": "Kp at 1 h", "setting": "[1]; BIC 0.83 mg/kg (1×) oral gavage once daily GD11.5-GD15.5 with TDF 50 mg/kg + FTC 33.3 mg/kg, mean (SD), n=2, read-out: Amniotic: Maternal Plasma Ratio 1 h", "result": 0.021}, {"measurement": "Kp at 1 h", "setting": "[1]; BIC 4.15 mg/kg (5×) oral gavage once daily GD11.5-GD15.5 with TDF 50 mg/kg + FTC 33.3 mg/kg, mean (SD), n=2, read-out: Amniotic: Maternal Plasma Ratio 1 h", "result": 0.021}, {"measurement": "Kp at 1 h", "setting": "[1]; BIC 8.3 mg/kg (10×) oral gavage once daily GD11.5-GD15.5 with TDF 50 mg/kg + FTC 33.3 mg/kg, mean (SD), n=2, read-out: Amniotic: Maternal Plasma Ratio 1 h", "result": 0.036}, {"measurement": "Kp at 1 h", "setting": "[1]; BIC 16.6 mg/kg (20×) oral gavage once daily GD11.5-GD15.5 with TDF 50 mg/kg + FTC 33.3 mg/kg, mean (SD), n=2, read-out: Amniotic: Maternal Plasma Ratio 1 h", "result": 0.112}, {"measurement": "Embryo-fetal effects", "setting": "[2]", "result": "no adverse embryo-fetal effects"}, {"measurement": "Placental transfer", "setting": "[3]", "result": "low placental transfer"}, {"measurement": "Adverse effects in fetuses or pups", "setting": "[4]", "result": "no significant adverse effects in fetuses or pups"}, {"measurement": "Maternal and pregnancy findings", "setting": "[5]; BIC 1000 mg/kg/day", "result": "Spontaneous abortion, decreased body weight, and maternal toxicity"}, {"measurement": "Embryo-fetal effects", "setting": "[5]; BIC orally 100, 300, or 1000 mg/kg/day, gestational day 7 through 19", "result": "no adverse embryo-fetal effects"}, {"measurement": "In vitro resistance profile", "setting": "[6]", "result": "improved in vitro resistance profile"}, {"measurement": "Birth defects observed", "setting": "[7]; interim report, 140 pregnancies in women treated with BIC during periconception or pregnancy", "result": "three"}, {"measurement": "Virological suppression through delivery", "setting": "[7]; two pregnant women on BIC", "result": "remained virologically suppressed through delivery"}]}, {"smiles": "COc1cc2c(cc1Cc1cccc(Cl)c1F)c(=O)c(C(=O)O)cn2[C@H](CO)C(C)C", "note": "[EVG, elvitegravir]", "values": [{"measurement": "Drug levels in pregnancy", "setting": "[7]; second and third trimester", "result": "inadequate levels in the second and third trimester"}]}]}
